Assay results published in ChEMBL document CHEMBL1201862, “PubChem BioAssay data set” (2004).
Structures can show the parent of a compound that is named as a salt.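 Test compounds were applied to cells in 96-well plates for 48 hours at 5 doses. Here, GI50 denotes the concentration required for 50% inhibition of growth.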 Activity calls are given as the source filed them. Rule as the data show it: active = GI50 up to about 1.1 µM and inactive = higher.

How the values were obtained:
Test in all cases: NCI anticancer screen, dose series, 48 h
[1] = tested on: RPMI-8226
[2] = tested on: A549
[3] = tested on: U-251
[4] = tested on: T47D
[5] = tested on: MDA-MB-231
[6] = tested on: OVCAR-3
[7] = tested on: CCRF-CEM
[8] = tested on: Hs-578T
[9] = tested on: HCT-116
[10] = tested on: K562
[11] = tested on: A498
[12] = tested on: OVCAR-8
[13] = tested on: PC-3
[14] = tested on: NCI/ADR-RES
[15] = tested on: NCI-H522
[16] = tested on: HCT-15
[17] = tested on: Malme-3M
[18] = tested on: NCI-H460
[19] = tested on: SK-MEL-2

Row | SMILES | GI50 [1] | GI50 [2] | GI50 [3] | GI50 [4] | GI50 [5] | GI50 [6] | GI50 [7] | GI50 [8] | GI50 [9] | GI50 [10] | GI50 [11] | GI50 [12] | GI50 [13] | GI50 [14] | GI50 [15] | GI50 [16] | GI50 [17] | GI50 [18] | GI50 [19]
1 | C1COCCOP2(N3CC3)=NP(N3CC3)(=NP(N3CC3)(N3CC3)=N2)OCCOCCO1 (stereo not given) | > 100 µM (inactive) | > 100 µM (inactive) | > 100 µM (inactive) | 70.3 µM (inactive) | > 100 µM (inactive) | > 100 µM (inactive) | 77.3 µM (inactive) | > 100 µM (inactive) | > 100 µM (inactive) | > 100 µM (inactive) | > 100 µM (inactive) | > 100 µM (inactive) | > 100 µM (inactive) | > 100 µM (inactive) | > 100 µM (inactive) | > 100 µM | > 100 µM (inactive) | – | –
2 | COc1cnc2cc(C(=O)O)c3c([N+](=O)[O-])cccc3c2c1 | > 100 µM (inactive) | > 100 µM (inactive) | > 100 µM (inactive) | > 100 µM (inactive) | > 100 µM (inactive) | > 100 µM (inactive) | > 100 µM (inactive) | > 100 µM (inactive) | > 100 µM (inactive) | > 100 µM (inactive) | – | > 100 µM (inactive) | > 100 µM (inactive) | > 100 µM (inactive) | > 100 µM (inactive) | > 100 µM | > 100 µM (inactive) | > 100 µM (inactive) | > 100 µM (inactive)
3 | CC1CN(CCO)CCN1c1ccccc1 (stereo not given) | > 100 µM (inactive) | > 100 µM (inactive) | > 100 µM (inactive) | > 100 µM (inactive) | > 100 µM (inactive) | > 100 µM (inactive) | – | > 100 µM (inactive) | > 100 µM (inactive) | > 100 µM (inactive) | > 100 µM (inactive) | > 100 µM (inactive) | > 100 µM (inactive) | > 100 µM (inactive) | > 100 µM (inactive) | > 100 µM | > 100 µM (inactive) | > 100 µM (inactive) | > 100 µM (inactive)
4 | CCNCC(O)COc1ccc2c(c1)[n+]([O-])nc(N)[n+]2[O-] (stereo not given) | 61.9 µM (inactive) | 24.2 µM (inactive) | 42.7 µM (inactive) | 81.8 µM (inactive) | > 100 µM (inactive) | > 100 µM (inactive) | 19 µM (inactive) | 54.6 µM (inactive) | 50.2 µM (inactive) | 35.2 µM (inactive) | 27.8 µM (inactive) | 56 µM (inactive) | 24.7 µM (inactive) | > 100 µM (inactive) | 12.6 µM (inactive) | 63.7 µM | – | > 10 µM (inactive) | 39.6 µM (inactive)
5 | C/C(=N\Nc1nc2ccccc2s1)c1cnccn1 | 2.89 µM (inactive) | 3.3 µM (inactive) | 3.67 µM (inactive) | 0.769 µM (active) | 0.757 µM (active) | 0.49 µM (active) | 0.318 µM (active) | 2.33 µM (inactive) | 1.5 µM (inactive) | 1.67 µM (inactive) | – | 1.7 µM (inactive) | 2.12 µM (inactive) | 1.74 µM (inactive) | 0.265 µM (active) | 0.625 µM | 0.505 µM (active) | 1.77 µM (inactive) | 7.5 µM (inactive)
6 | Oc1ccccc1-n1nc2ccc3nonc3c2n1 | > 100 µM (inactive) | > 100 µM (inactive) | > 100 µM (inactive) | > 100 µM (inactive) | > 100 µM (inactive) | > 100 µM (inactive) | > 100 µM (inactive) | > 100 µM (inactive) | > 100 µM (inactive) | > 100 µM (inactive) | – | > 100 µM (inactive) | > 100 µM (inactive) | > 100 µM (inactive) | > 100 µM (inactive) | 51.3 µM | > 100 µM (inactive) | > 100 µM (inactive) | > 100 µM (inactive)
7 | O=C(/C=C/c1ccsc1)c1ccc(Cl)cc1 | 21 µM (inactive) | > 100 µM (inactive) | 66.4 µM (inactive) | 74.8 µM (inactive) | 63.7 µM (inactive) | – | 21.9 µM (inactive) | 57.8 µM (inactive) | 23.7 µM (inactive) | 20.6 µM (inactive) | 45 µM (inactive) | 64.7 µM (inactive) | 70.8 µM (inactive) | 78.3 µM (inactive) | – | 39.7 µM | 33.1 µM (inactive) | > 100 µM (inactive) | > 100 µM (inactive)
8 | CN(C)C(Cc1c[nH]cn1)C(=O)N1CCCC1C(N)=O (stereo not given) | > 100 µM (inactive) | > 100 µM (inactive) | > 100 µM (inactive) | > 100 µM (inactive) | > 100 µM (inactive) | > 100 µM (inactive) | > 100 µM (inactive) | > 100 µM (inactive) | > 100 µM (inactive) | > 100 µM (inactive) | 22.9 µM (inactive) | > 100 µM (inactive) | > 100 µM (inactive) | > 100 µM (inactive) | > 100 µM (inactive) | > 100 µM | > 100 µM (inactive) | > 100 µM (inactive) | –
9 | O=C1C=C(c2ccccc2)O/C1=C/C(=O)c1ccc(Cl)cc1 | 3.33 µM (inactive) | – | 15.7 µM (inactive) | > 10 µM (inactive) | 17.2 µM (inactive) | 17.5 µM (inactive) | 3.35 µM (inactive) | 22.1 µM (inactive) | 16.4 µM (inactive) | 8.13 µM (inactive) | 23.4 µM (inactive) | 23.1 µM (inactive) | 14.2 µM (inactive) | 22.1 µM (inactive) | 11.1 µM (inactive) | 22 µM | 17.2 µM (inactive) | 20.2 µM (inactive) | –
10 | CCO/C(Cc1ccc(Cl)cc1)=N/NC(N)=S | – | > 100 µM (inactive) | > 100 µM (inactive) | 27.8 µM (inactive) | > 100 µM (inactive) | > 100 µM (inactive) | > 100 µM (inactive) | > 100 µM (inactive) | > 100 µM (inactive) | 83 µM (inactive) | > 100 µM (inactive) | > 100 µM (inactive) | > 100 µM (inactive) | > 100 µM (inactive) | – | > 100 µM | > 100 µM (inactive) | > 100 µM (inactive) | > 100 µM (inactive)
11 | N#Cc1c(N2CCC(O)C2)c2ccccc2n2c1nc1ccccc12 (stereo not given) | > 100 µM (inactive) | > 100 µM (inactive) | – | 64.3 µM (inactive) | 19.4 µM (inactive) | > 100 µM (inactive) | > 100 µM (inactive) | 29.2 µM (inactive) | > 100 µM (inactive) | – | 31.3 µM (inactive) | 45.7 µM (inactive) | > 100 µM (inactive) | 65.3 µM (inactive) | 47.5 µM (inactive) | > 100 µM | 40.4 µM (inactive) | > 100 µM (inactive) | 43.4 µM (inactive)
12 | CC(C)[Si](OC1=CCC[C@H]2NC(=O)[C@@H](Cc3ccc([N+](=O)[O-])cc3)[C@@]12C)(C(C)C)C(C)C | – | 1.85 µM (inactive) | – | 4.73 µM (inactive) | 6.5 µM (inactive) | 4.34 µM (inactive) | 2.86 µM (inactive) | 7.31 µM (inactive) | 3.68 µM (inactive) | 3.06 µM (inactive) | – | 11.6 µM (inactive) | 3.4 µM (inactive) | 11.7 µM (inactive) | 4.95 µM (inactive) | 4.25 µM | 16.6 µM (inactive) | 3.35 µM (inactive) | 12.8 µM (inactive)
13 | CC(C)CCC[C@@H](C)C1CCC2[C@@H]3CCC4C[C@@H](NS(C)(=O)=O)CC[C@]4(C)C3CC[C@@]21C (stereo not given in full) | > 100 µM (inactive) | > 100 µM (inactive) | > 100 µM (inactive) | > 100 µM (inactive) | > 100 µM (inactive) | > 100 µM (inactive) | > 100 µM (inactive) | > 100 µM (inactive) | > 100 µM (inactive) | > 100 µM (inactive) | – | > 100 µM (inactive) | > 100 µM (inactive) | > 100 µM (inactive) | > 100 µM (inactive) | > 100 µM | > 100 µM (inactive) | > 100 µM (inactive) | > 100 µM (inactive)
14 | NCCS [CYSTEAMINE HYDROCHLORIDE] | > 100 µM (inactive) | > 100 µM (inactive) | > 100 µM (inactive) | > 100 µM (inactive) | > 100 µM (inactive) | > 100 µM (inactive) | > 100 µM (inactive) | > 100 µM (inactive) | > 100 µM (inactive) | > 100 µM (inactive) | – | > 100 µM (inactive) | > 100 µM (inactive) | > 100 µM (inactive) | > 100 µM (inactive) | > 100 µM | > 100 µM (inactive) | > 100 µM (inactive) | > 100 µM (inactive)
15 | O=C(Nn1c(-c2ccccc2)nc2ccccc2c1=O)c1ccc([N+](=O)[O-])cc1 | > 100 µM (inactive) | > 100 µM (inactive) | > 100 µM (inactive) | > 100 µM (inactive) | > 100 µM (inactive) | > 100 µM (inactive) | > 100 µM (inactive) | > 100 µM (inactive) | > 10 µM (inactive) | > 100 µM (inactive) | 46.7 µM (inactive) | > 100 µM (inactive) | > 100 µM (inactive) | > 100 µM (inactive) | > 100 µM (inactive) | > 100 µM | > 100 µM (inactive) | > 100 µM (inactive) | –
16 | Nc1sccc1S(=O)(=O)c1ccsc1N | > 100 µM (inactive) | > 100 µM (inactive) | > 100 µM (inactive) | > 100 µM (inactive) | > 100 µM (inactive) | > 100 µM (inactive) | – | > 100 µM (inactive) | > 100 µM (inactive) | – | > 100 µM (inactive) | > 100 µM (inactive) | > 100 µM (inactive) | > 100 µM (inactive) | > 100 µM (inactive) | > 100 µM | > 100 µM (inactive) | > 100 µM (inactive) | > 100 µM (inactive)
